PubChem BioAssay (NCI)
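Cells were grown in 96-well plates and exposed to each compound for 48 hours at five concentrations; endpoints were interpolated linearly between bracketing concentrations, or set to the highest concentration if not reached. GI50 is the concentration that inhibits growth by half. At the TGI there is no net growth.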

Experiments:
Experiment in all cases: DTP human tumour cell line panel, 48 h
OVCAR-8 ovarian = test system: OVCAR-8 ovarian
CCRF-CEM leukemia = test system: CCRF-CEM leukemia
A498 renal = test system: A498 renal
CAKI-1 renal = test system: CAKI-1 renal
SK-MEL-28 melanoma = test system: SK-MEL-28 melanoma
KM12 colon = test system: KM12 colon
OVCAR-3 ovarian = test system: OVCAR-3 ovarian
NCI-H226 lung = test system: NCI-H226 lung
SK-MEL-2 melanoma = test system: SK-MEL-2 melanoma
MCF7 breast = test system: MCF7 breast

| SMILES | TGI (OVCAR-8 ovarian) [µM] | TGI (CCRF-CEM leukemia) [µM] | TGI (A498 renal) [µM] | TGI (CAKI-1 renal) [µM] | TGI (SK-MEL-28 melanoma) [µM] | TGI (KM12 colon) [µM] | TGI (OVCAR-3 ovarian) [µM] | TGI (NCI-H226 lung) [µM] | TGI (SK-MEL-2 melanoma) [µM] | TGI (MCF7 breast) [µM] | GI50 (OVCAR-8 ovarian) [µM] | GI50 (CCRF-CEM leukemia) [µM] | GI50 (KM12 colon) [µM] | GI50 (MCF7 breast) [µM] | GI50 (NCI-H226 lung) [µM] | GI50 (SK-MEL-2 melanoma) [µM] | GI50 (A498 renal) [µM] | GI50 (SK-MEL-28 melanoma) [µM] | GI50 (OVCAR-3 ovarian) [µM] | GI50 (CAKI-1 renal) [µM] |
| --- | --- | --- | --- | --- | --- | --- | --- | --- | --- | --- | --- | --- | --- | --- | --- | --- | --- | --- | --- | --- |
| O=C(/C=C\c1cccc2ccccc12)c1ccc(F)cc1 | 28.4 | 41.8 | > 100 | 35.3 | 26.4 | 28.8 | 30.9 | > 100 |  |  |  |  |  |  |  |  |  |  |  |  |
| CC(C)N1CCN(c2ccncc2S(=O)(=O)N2CCCCC2)CC1 | > 100 |  | > 100 | > 100 | > 100 | > 100 | > 100 | > 100 | > 100 | > 100 |  |  |  |  |  |  |  |  |  |  |
| COc1ccc(/C=C2\CN(C(=O)C(Cl)Cl)C/C(=C\c3ccc(OC)cc3)C2=O)cc1 | > 100 | > 100 |  |  |  | 1.16 |  | 7.65 |  | 1.51 | 0.881 | 0.528 | 0.332 | 0.296 | 2.47 |  |  |  |  |  |
| CCOC(=O)C1SC(=Nc2ccc(OC)c(OC)c2)N=C1C (stereo unspecified) | > 100 | 59 | > 100 | > 100 | > 100 | > 100 | 86.7 | > 100 | > 100 |  |  |  |  |  |  |  |  |  |  |  |
| COc1ccc2c(c1)c(-c1nc(-c3c[nH]c4ncccc34)cs1)cn2CCCN1CCCCC1 | 3.76 |  | 3.42 |  | 3.26 | 3.86 | 3.1 |  | 3.72 | 2.9 | 2 |  | 1.87 | 1.43 |  | 1.85 | 1.82 | 1.72 | 1.63 |  |
| N#CC(/C(CCC(=O)Nc1ccc(Cl)cc1)=N/NC(=O)c1cc2ccccc2cc1O)c1ccccc1 (stereo unspecified) | > 100 | 49.4 |  |  | > 100 | > 100 | > 100 | > 100 | 61.2 |  |  |  |  |  |  |  |  |  |  |  |
| CSC(=NC#N)S/C=C/C(=O)c1ccccc1 | > 100 | 15 | > 100 | 37.2 | > 100 | > 100 | > 100 |  | > 100 | > 100 | 38.1 | 1.77 | > 100 | 52.3 |  | 70.6 | 61 | 58 | 31.5 | 16.6 |
| N.N.N.N.N.NC(=O)[O-].[Co+3].[I-] | > 100 | > 100 | > 100 |  | > 100 | > 100 | > 100 |  | > 100 |  | > 100 | > 100 | > 100 |  |  | > 100 | > 100 | > 100 | > 100 |  |
| CC(C)N(O)C(=N)c1ccccc1 | > 100 |  |  | > 100 | > 100 | > 100 |  | > 100 | > 100 |  |  |  |  |  |  |  |  |  |  |  |
| COc1cc(OC)c(C(=O)c2cccs2)cc1N | > 100 | > 100 | > 100 | > 100 | > 100 | > 100 | > 100 |  | > 100 |  |  |  |  |  |  |  |  |  |  |  |
| CC(CC(=O)N1C(=O)C(C)(C)[C@@H](O)[C@H]1CC(C)C(Cl)(Cl)Cl)C(Cl)(Cl)Cl (stereo partly specified) | > 100 | > 100 | > 100 | > 100 |  | > 100 | > 100 | > 100 |  |  |  |  |  |  |  |  |  |  |  |  |
| O=C/C1=C/C2=Cc3ccccc3C=C(/C=C(/C=O)C1)C2 | > 100 | 74.9 | > 100 | > 100 | > 100 | > 100 | 98.4 | > 100 | > 100 |  |  |  |  |  |  |  |  |  |  |  |
| CCC(=O)N1C(=O)OCC1C(C)C (stereo unspecified) | > 100 | > 100 | > 100 | > 100 |  | > 100 | > 100 |  | > 100 |  |  |  |  |  |  |  |  |  |  |  |
| O=C1C(=O)N(c2ccc(Cl)cc2)C(=O)C(=O)C1c1nc2ccccc2o1 | > 100 | > 100 | > 100 | > 100 | > 100 | > 100 | > 100 | > 100 | > 100 |  |  |  |  |  |  |  |  |  |  |  |
| NCCc1ccc(S(=O)(=O)F)cc1 | > 100 |  |  | > 100 | > 100 | > 100 | 78.1 |  | > 100 | > 100 | > 100 |  | > 100 | 63.5 |  | 90.9 |  | > 100 | 31.1 | 30.3 |
| CCCCCCCCCCCCCCCC1=NCCN1 | 6.92 |  | 6.14 | 3.58 | 3.77 | 3.45 | 4.02 | 4.7 | 4.87 |  | 2.67 |  | 1.83 |  | 2.12 | 2.36 | 2.14 | 1.88 | 2.01 | 1.67 |
| O=S(=O)([O-])c1ccc(N=Cc2ccccc2[O-])cc1.O=S(=O)([O-])c1ccc(N=Cc2ccccc2[O-])cc1.[Co+2] | > 100 | > 100 |  |  | > 100 | > 100 |  | > 100 | > 100 |  | > 100 | 15.5 | > 100 |  | > 100 | > 100 |  | 59.5 |  |  |
| COc1cc(/C=C(\NC(=O)c2ccccc2)c2nc3ccc4c(c3[nH]2)C(=O)c2ccccc2C4=O)cc(OC)c1OC | > 100 | > 100 | > 100 | > 100 | > 100 | > 100 | > 100 | > 100 | > 100 |  |  |  |  |  |  |  |  |  |  |  |
| CN1CN(C2OC(CO)C(O)C2O)c2nc(N)[nH]c(=O)c21 (stereo unspecified) | > 100 |  | > 100 | > 100 |  | > 100 | > 100 | > 100 | > 100 |  |  |  |  |  |  |  |  |  |  |  |
| O=c1c2ccc(S(=O)(=O)c3ccc4c(=O)n5c6ccccc6nc5c5cccc3c45)c3cccc(c32)c2nc3ccccc3n12 | > 100 |  |  | > 100 | > 100 | > 100 | > 100 | > 100 | 65.6 | > 100 |  |  |  |  |  |  |  |  |  |  |
